Laboratory results from ChEMBL document CHEMBL1201862, “PubChem BioAssay data set” (2004).
Active and inactive are the calls of the source.

Assays:
Vero [1] = experiment: cells; type: functional, cell-based; conditions: Chlorocebus sabaeus
[2] = HEp-2 cell cytotoxicity, dose response, cytotoxicity control for RSV inhibitor project, HTS (AID 2410); type: functional; conditions: human respiratory syncytial virus
[3] = NIH-3T3 fibroblast cytotoxicity, dose response, cytotoxicity control, cell-based, fluorescence, Alamar Blue, secondary assay (AID 2327); type: functional;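 further: NIH-3T3 mouse fibroblasts cultured with fluconazole at 8 µg/mL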
[4] = molecular target: T1, Serine/threonine-protein phosphatase (Candida dubliniensis (strain CD36 / CBS 7987 / NCPF 3949 / NRRLY-17841) (Yeast), UniProt B9W6M3); experiment: calcineurin pathway inhibitors in yeast reporter, dose response, S. cerevisiae, CDRE-lacZ, luminescence, secondary (AID 2388); type: functional, cell-based;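 further: yeast reporter cells carrying a calcineurin-responsive lacZ construct stimulated with calcium chloride; luminescent beta-galactosidase reporter signal in whole cells rather than isolated phosphatase activity; potency for inhibition where a drop in reporter signal means calcineurin blockade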
T1 sequence (B9W6M3 whole entry): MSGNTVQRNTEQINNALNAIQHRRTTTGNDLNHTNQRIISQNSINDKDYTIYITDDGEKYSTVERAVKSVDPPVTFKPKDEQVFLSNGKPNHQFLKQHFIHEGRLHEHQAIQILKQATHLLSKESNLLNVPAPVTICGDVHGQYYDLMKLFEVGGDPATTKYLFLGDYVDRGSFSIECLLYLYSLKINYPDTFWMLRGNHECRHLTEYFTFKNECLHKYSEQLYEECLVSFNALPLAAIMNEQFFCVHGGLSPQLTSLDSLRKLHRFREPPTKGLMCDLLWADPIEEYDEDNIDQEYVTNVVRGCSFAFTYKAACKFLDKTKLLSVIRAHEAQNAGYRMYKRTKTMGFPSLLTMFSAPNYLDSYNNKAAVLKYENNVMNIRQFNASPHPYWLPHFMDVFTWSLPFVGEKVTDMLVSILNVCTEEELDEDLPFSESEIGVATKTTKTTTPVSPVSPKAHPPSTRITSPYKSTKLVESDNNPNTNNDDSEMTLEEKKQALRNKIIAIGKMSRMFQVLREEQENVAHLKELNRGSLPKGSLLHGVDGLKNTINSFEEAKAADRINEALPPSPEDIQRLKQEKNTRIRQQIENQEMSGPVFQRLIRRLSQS

[5] = inhibitors of firefly luciferase expression or activity, dose response, H4 neuroglioma cells, luminescence (AID 1990); type: functional, cell-based
Vero [6] = experiment: cells; type: functional; conditions: Chlorocebus sabaeus
[7] = C. albicans growth with fluconazole, confirmation, fluorescence, retest (AID 2467); type: functional, cell-based
[8] = inhibitors of SNCA 5'UTR-driven reporter translation, confirmation, H4 neuroglioma cells, luminescence (AID 1988); type: functional, cell-based
[9] = Luminescence Cell-Based Dose Response HTS to Identify Inhibitors of 5'UTR Stem-Loop Driven Prion Protein mRNA Translation in H4 Neuroglioblastoma Cells. [Related pubchem assays: 1827 (Project Summary), 1813 (Primary HTS)]; type: functional
[10] = molecular target: T2, Ubiquitin-conjugating enzyme E2 N (Homo sapiens, UniProt P61088); type: functional;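 further: Dose-response confirmation in a TR-FRET assay detecting UBC13-driven polyubiquitin chain formation, inhibition measured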
T2 sequence (P61088 whole entry): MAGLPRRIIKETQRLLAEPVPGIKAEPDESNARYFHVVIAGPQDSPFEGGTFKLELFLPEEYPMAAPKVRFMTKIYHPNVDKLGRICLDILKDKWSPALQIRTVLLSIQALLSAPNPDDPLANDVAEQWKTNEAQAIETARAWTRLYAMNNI

[11] = molecular target: ATP-dependent molecular chaperone HSP82 (Candida albicans (strain WO-1) (Yeast), UniProt C4YTQ8); experiment: loss of DOC-induced GRE-beta-galactosidase reporter signal, dose response, Hsp90 inhibitor project, S. cerevisiae, luminescence (AID 2400); type: functional, cell-based;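 further: beta-galactosidase luminescence from glucocorticoid response element reporter as proxy for Hsp90 function; inhibitor potency where signal loss means Hsp90 inhibition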
[12] = molecular target: T3, Mannose-6-phosphate isomerase (Homo sapiens, UniProt P34949); experiment: human PMI inhibitors, high substrate, primary screen, biochemical, fluorescence intensity, high mannose 6-phosphate (AID 1220)
T3 sequence (P34949 whole entry): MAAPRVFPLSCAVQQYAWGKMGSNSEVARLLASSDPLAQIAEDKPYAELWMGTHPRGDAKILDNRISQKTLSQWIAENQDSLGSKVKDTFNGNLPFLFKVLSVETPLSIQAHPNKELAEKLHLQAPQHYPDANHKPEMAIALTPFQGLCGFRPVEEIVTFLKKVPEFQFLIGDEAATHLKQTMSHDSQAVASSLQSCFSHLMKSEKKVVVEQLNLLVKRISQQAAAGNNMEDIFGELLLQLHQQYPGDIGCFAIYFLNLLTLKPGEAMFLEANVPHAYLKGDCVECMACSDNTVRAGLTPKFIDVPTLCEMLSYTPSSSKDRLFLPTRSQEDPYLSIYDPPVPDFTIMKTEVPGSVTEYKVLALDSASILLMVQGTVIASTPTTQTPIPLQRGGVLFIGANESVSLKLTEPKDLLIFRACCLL

Large T antigen = Large T antigen (Simian virus 40, UniProt P03070); type: functional, Betapolyomavirus macacae;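 further: Confirmatory-stage PubChem screen for compounds that inhibit SV40 T antigen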
[13] = molecular target: Glucose-6-phosphate 1-dehydrogenase (Homo sapiens, UniProt P11413); experiment: human G6PD enzyme inhibitors, dose response, selectivity assay for P. falciparum G6PD inhibitor project, biochemical, fluorescence (AID 504792); type: functional
[14] = molecular target: T4, Rac GTPase-activating protein 1 (Homo sapiens, UniProt Q9H0H5); experiment: MgcRacGAP GTPase-activating activity inhibitors, confirmation, biochemical, ADP Hunter fluorescence, primary and confirmatory (AID 624330); type: functional
T4 sequence (Q9H0H5 whole entry): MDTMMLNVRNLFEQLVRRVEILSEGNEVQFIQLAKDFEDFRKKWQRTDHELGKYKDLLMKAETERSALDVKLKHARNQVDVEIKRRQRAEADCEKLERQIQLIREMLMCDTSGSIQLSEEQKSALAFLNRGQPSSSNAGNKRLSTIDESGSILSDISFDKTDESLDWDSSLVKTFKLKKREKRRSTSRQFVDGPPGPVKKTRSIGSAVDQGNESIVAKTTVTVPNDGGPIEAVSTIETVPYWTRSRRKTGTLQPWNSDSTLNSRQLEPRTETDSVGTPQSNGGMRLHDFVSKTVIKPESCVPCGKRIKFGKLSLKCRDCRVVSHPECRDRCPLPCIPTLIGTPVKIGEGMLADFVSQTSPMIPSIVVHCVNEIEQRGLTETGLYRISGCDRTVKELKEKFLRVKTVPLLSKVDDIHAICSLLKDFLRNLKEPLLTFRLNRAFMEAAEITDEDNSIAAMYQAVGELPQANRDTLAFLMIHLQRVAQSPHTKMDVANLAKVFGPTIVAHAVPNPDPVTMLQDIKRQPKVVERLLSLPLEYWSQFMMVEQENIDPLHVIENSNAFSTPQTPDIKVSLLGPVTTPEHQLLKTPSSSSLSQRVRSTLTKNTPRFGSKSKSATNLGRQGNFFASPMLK

Genome polyprotein = Genome polyprotein (dengue virus type 2, UniProt P29990); experiment: Dengue-2 NS5 methyltransferase inhibitors, primary screen, biochemical, confirmation dose response (AID 588689); type: functional
Ion channel NompC = Ion channel NompC (Danio rerio, UniProt Q7T1G6); experiment: Dose response cell-based high-throughput screening assay for agonists of the transient receptor potential channel N1 (TRPN1). [Related pubchem assays (depositor defined):AID1424, AID1448]; type: functional
[15] = molecular target: DNA dC->dU-editing enzyme APOBEC-3G (Homo sapiens, UniProt Q9HC16); experiment: Dose Response confirmation of small molecule APOBEC3G DNA Deaminase Inhibitors via a fluorescence-based single-stranded DNA deaminase assay. [Related pubchem assays (depositor defined):AID493012, AID493028]; type: functional
[16] = cytotoxicity toward NIH3T3 fibroblasts, dose response, counter-screen, cell-based, ATP luminescence, mouse fibroblasts (AID 2010); type: functional;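 further: cells exposed to compound for about 90 hours before reading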
[17] = inhibitors of intracellular T. cruzi replication, confirmation, NIH3T3 host cells, beta-gal luminescence (AID 2044); type: functional, cell-based;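 further: intracellular parasites grown in NIH/3T3 mouse fibroblasts as host cells; luminescent beta-galactosidase reporter signal from transgenic T. cruzi replicating inside host cells; inhibitors lower the luminescence signal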
[18] = molecular target: DNA dC->dU-editing enzyme APOBEC-3A (Homo sapiens, UniProt P31941); experiment: APOBEC3A DNA deaminase inhibitors, dose response, biochemical (AID 504722); type: functional
Mucolipin-3 = molecular target: T5, Mucolipin-3 (Homo sapiens, UniProt Q8TDD5); experiment: Fluorescence counterscreen assay for […] agonists: dose response cell-based high-throughput screening assay to identify agonists of the transient receptor potential channel ML3 (TRPML3). [Related pubchem assays: 1424, 1448 ]; type: functional
T5 sequence (Q8TDD5 whole entry): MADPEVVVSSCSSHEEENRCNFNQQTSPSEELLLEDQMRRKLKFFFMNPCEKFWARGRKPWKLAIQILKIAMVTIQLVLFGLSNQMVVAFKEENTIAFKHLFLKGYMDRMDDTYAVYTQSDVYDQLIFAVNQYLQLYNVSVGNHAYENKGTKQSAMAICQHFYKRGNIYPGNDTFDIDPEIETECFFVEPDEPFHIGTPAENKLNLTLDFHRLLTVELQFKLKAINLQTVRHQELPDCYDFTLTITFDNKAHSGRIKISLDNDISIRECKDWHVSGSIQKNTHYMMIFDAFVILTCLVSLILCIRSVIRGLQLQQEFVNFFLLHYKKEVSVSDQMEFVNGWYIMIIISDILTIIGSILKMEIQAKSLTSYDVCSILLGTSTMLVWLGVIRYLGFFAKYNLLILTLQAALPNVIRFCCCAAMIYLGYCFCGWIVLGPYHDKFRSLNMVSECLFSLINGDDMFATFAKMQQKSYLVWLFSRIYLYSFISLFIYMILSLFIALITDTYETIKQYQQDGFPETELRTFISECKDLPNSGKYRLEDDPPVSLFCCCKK

[19] = molecular target: T6, Voltage-gated N-type calcium channel alpha-1B subunit/Amyloid beta A4 precursor protein-binding family A member 1 (Homo sapiens, UniProt Q00975+Q02410); type: protein assay
[20] = molecular target: T6, Voltage-gated N-type calcium channel alpha-1B subunit/Amyloid beta A4 precursor protein-binding family A member 1; type: protein assay; remark: listed apart in the source
[21] = molecular target: Dual specificity tyrosine-phosphorylation-regulated kinase 1A (Rattus norvegicus, UniProt Q63470); type: biochemical, Homo sapiens
[22] = molecular target: T7, Endoribonuclease toxin MazF (Escherichia coli K-12, UniProt P0AE70); experiment: MazF toxin RNase activators, dose response, biochemical, fluorescence, single-stranded RNA substrate, uHTS hits (AID 588481); type: functional
T7 sequence (P0AE70 whole entry): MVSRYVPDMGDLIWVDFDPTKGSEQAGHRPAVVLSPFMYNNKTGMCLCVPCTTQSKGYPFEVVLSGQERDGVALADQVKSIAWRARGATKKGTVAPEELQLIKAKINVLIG

[23] = molecular target: T7, Endoribonuclease toxin MazF; experiment: fluorescent RNA oligo signal without MazF, dose response, counter-screen for MazEF activator project, biochemical, fluorescence, single-stranded RNase substrate (AID 588502); type: functional
H4 [24] = experiment: Inhibitors of Prion Protein 5' UTR mRNA Measured in Cell-Based System Using Plate Reader - 2078-01_Inhibitor_Dose_DryPowder_Activity. [Related pubchem assays (depositor defined):AID488894]; type: functional; conditions: Homo sapiens
[25] = cytotoxicity in HEK-293T cells, dose response, cytotoxicity control for TCR NF-kB inhibitor project, luminescence, T-cell screen hits (AID 489026); type: functional, cell-based;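 further: cells exposed to compound about 14 hours before the viability readout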
[26] = Luminescence Cell-Based Dose Response HTS to Identify Activators of Luciferase Translation or Activity in H4 […] Cells. [Related pubchem assays: 1829 (Project Summary), 1814 (Primary HTS)]; type: functional
[27] = Luminescence Cell-Based Dose Confirmation HTS to Identify Activators of 5'UTR Stem-Loop Driven Alpha-Synuclein mRNA Translation in H4 Neuroglioblastoma Cells. [Related pubchem assays: 1829 (Project Summary), 1814 (Primary HTS)]; type: functional
H4 [28] = experiment: Luminescence Cell-Based Dose Response HTS to Identify Activators of 5'UTR Stem-Loop Driven Prion Protein mRNA Translation in H4 Neuroglioblastoma Cells. [Related pubchem assays: 1829 (Project Summary), 1814 (Primary HTS)]; type: functional; conditions: Homo sapiens

Chain of Large T antigen (P03070 whole entry): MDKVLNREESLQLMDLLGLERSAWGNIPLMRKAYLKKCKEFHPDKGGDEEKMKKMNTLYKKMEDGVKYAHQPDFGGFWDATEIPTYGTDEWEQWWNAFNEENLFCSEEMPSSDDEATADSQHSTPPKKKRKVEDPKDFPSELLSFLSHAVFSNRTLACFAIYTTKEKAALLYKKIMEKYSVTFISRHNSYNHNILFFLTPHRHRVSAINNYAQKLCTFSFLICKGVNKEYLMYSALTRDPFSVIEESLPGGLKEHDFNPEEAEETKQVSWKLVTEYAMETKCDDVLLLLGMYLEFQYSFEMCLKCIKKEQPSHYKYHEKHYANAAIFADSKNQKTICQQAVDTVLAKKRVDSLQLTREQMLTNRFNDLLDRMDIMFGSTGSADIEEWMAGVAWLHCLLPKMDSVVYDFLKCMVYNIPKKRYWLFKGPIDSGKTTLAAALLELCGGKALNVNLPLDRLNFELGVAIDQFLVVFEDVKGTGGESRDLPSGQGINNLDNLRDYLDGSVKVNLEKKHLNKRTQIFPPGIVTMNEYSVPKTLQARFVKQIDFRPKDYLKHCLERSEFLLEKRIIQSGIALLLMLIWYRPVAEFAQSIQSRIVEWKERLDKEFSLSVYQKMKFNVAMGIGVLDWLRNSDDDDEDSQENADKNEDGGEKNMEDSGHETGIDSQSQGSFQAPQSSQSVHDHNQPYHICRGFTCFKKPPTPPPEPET
Chain of ATP-dependent molecular chaperone HSP82 (C4YTQ8 whole entry): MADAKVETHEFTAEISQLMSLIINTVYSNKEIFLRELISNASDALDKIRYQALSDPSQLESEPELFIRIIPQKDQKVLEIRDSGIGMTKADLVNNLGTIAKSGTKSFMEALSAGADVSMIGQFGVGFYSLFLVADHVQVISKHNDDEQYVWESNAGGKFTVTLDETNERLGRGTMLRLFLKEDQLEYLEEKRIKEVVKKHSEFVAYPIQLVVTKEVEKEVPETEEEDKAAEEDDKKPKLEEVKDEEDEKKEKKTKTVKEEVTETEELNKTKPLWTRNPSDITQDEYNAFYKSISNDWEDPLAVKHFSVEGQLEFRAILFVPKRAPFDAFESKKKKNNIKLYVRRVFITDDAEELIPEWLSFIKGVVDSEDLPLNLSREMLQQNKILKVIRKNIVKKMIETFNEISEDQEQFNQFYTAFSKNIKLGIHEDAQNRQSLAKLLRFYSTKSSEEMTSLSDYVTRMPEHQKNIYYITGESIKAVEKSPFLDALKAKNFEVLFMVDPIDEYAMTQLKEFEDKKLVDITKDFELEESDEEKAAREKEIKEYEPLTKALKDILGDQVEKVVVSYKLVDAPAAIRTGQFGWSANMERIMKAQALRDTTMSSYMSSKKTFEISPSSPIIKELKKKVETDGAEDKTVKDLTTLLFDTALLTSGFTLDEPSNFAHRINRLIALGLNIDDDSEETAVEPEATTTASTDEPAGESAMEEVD
Chain of Glucose-6-phosphate 1-dehydrogenase (P11413 whole entry): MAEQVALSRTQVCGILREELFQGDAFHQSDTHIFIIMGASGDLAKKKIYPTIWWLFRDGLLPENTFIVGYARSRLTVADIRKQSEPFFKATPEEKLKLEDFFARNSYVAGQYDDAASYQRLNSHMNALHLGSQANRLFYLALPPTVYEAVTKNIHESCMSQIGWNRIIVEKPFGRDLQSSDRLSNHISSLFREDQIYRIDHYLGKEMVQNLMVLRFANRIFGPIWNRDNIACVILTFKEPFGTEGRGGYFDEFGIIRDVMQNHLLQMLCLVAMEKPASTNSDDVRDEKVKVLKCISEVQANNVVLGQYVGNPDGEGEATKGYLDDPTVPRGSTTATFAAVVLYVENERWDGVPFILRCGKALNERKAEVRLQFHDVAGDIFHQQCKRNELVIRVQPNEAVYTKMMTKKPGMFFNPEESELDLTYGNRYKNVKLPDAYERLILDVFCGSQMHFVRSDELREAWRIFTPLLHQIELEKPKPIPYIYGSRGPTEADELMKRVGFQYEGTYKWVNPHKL
T6 sequence (Q00975 whole entry): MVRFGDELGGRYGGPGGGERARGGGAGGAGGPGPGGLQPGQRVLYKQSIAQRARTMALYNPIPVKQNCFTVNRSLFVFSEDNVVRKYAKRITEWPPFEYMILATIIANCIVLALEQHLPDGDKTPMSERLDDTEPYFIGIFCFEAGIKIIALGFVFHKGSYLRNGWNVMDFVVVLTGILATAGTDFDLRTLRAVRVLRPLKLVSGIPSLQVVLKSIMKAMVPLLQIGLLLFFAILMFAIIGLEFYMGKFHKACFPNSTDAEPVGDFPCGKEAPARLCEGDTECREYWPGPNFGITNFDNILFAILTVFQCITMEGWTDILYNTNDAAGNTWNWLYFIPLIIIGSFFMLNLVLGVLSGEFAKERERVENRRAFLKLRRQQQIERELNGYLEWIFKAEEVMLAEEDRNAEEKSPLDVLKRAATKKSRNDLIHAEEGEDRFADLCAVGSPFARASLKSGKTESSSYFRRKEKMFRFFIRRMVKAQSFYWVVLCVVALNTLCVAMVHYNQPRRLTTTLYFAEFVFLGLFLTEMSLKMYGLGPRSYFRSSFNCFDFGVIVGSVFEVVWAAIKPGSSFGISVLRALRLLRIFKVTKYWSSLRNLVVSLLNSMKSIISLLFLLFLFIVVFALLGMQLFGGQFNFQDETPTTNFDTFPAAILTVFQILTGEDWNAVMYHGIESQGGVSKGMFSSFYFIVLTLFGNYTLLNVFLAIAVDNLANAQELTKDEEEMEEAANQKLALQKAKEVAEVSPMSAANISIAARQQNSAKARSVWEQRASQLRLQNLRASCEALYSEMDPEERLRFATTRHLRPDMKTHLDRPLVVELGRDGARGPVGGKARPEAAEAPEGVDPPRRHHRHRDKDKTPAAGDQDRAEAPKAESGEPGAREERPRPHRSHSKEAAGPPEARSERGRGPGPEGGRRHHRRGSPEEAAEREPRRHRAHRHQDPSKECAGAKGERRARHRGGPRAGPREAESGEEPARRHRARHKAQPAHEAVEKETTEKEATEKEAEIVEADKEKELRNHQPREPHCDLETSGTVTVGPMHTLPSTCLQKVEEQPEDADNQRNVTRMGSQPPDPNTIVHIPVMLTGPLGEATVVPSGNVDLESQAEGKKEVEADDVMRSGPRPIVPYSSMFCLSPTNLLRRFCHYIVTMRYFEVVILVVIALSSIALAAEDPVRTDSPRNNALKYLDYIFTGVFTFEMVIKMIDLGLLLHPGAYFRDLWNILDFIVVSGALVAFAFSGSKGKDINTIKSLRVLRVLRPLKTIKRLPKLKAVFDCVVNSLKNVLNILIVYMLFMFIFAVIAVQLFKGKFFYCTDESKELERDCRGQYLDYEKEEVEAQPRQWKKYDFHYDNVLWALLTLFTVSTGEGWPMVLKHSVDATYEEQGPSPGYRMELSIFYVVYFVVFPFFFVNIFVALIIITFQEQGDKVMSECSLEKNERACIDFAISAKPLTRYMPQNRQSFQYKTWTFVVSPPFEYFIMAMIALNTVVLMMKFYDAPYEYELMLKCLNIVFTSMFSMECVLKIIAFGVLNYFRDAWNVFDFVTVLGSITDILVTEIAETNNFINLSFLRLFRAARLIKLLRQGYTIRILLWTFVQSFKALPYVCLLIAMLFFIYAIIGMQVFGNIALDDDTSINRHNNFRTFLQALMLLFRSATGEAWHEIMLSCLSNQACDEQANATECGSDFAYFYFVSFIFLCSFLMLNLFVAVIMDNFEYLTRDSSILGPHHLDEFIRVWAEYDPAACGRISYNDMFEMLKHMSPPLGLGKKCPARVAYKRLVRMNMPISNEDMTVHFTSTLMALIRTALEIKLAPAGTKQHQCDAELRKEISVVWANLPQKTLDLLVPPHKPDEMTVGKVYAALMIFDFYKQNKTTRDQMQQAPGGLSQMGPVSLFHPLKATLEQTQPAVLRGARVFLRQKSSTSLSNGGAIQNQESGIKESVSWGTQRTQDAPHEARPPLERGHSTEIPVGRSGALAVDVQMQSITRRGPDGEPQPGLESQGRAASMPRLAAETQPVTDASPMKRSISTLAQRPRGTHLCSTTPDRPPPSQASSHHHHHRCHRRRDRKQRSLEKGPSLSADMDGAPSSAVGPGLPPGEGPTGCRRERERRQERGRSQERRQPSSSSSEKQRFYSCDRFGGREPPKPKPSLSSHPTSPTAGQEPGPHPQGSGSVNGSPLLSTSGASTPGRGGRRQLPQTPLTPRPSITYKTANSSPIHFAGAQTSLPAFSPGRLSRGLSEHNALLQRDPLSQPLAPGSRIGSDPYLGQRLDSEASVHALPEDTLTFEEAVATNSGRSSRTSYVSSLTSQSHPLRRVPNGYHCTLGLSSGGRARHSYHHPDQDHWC
T6 sequence (Q02410 whole entry): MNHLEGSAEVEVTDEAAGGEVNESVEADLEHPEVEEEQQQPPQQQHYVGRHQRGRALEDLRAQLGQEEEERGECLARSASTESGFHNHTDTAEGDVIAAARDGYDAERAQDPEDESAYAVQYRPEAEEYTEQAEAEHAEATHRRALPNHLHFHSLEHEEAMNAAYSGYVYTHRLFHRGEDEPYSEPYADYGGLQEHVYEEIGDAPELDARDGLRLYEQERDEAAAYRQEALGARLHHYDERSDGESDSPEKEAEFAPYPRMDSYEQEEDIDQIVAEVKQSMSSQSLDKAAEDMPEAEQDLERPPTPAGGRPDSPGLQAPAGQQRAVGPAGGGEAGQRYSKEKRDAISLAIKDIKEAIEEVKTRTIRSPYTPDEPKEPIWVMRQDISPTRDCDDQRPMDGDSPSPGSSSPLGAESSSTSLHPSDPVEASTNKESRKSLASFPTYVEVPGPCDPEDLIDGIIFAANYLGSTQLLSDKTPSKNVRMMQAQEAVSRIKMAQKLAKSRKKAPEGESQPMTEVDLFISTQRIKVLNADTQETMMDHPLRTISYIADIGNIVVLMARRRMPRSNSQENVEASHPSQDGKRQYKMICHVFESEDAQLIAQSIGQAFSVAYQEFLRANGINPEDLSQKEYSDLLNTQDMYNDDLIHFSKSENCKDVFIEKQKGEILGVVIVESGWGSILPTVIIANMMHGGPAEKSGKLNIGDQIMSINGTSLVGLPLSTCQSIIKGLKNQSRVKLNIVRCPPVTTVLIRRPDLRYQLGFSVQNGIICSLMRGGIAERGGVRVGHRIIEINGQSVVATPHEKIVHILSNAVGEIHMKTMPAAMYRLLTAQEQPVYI

SMILES: O=C(Cc1c[nH]c2ccccc12)Nc1nnc(C2CC2)s1
- IC50 (Vero [1]): 16.6 µM (active)
- CC50 [2]: 21.6 µM (active)
- IC50 (cells): 39.1 µM (active)

SMILES: CCCOc1ccc(C(=O)NNC(=S)NC(C)=O)cc1
- EC50 [3]: > 160 µM (inactive)
- IC50 (Vero [1]): 23.6 µM (active)
- EC50 [4]: > 180 µM (inactive)
- EC50 [5]: 14.2 µM (active)
- CC50 (Vero [6]): > 25 µM (active)
- EC50 [7]: 0.372 µM (active)
- EC50 [8]: 9.77 µM (active)
- EC50 [9]: 14.2 µM (active)
- IC50 [10]: > 20 µM (inactive)
- EC50 [11]: > 160 µM (inactive)

SMILES: Cc1c(N=C2C=C(Br)C(=O)C(Br)=C2)c(=O)n(-c2ccccc2)n1C
- IC50 [12]: > 50 µM (not active)
- IC50 (Large T antigen): 27 µM (active)
- IC50 [13]: 58.4 µM (inactive)
- IC50 [14]: 52.2 µM (active)
- IC50 (Genome polyprotein): 82.5 µM (active)

SMILES: Cc1cc(C)c2c(=O)n(CC(=O)Nc3cccc(Cl)c3C)sc2n1
- EC50 (Ion channel NompC): > 29.9 µM (inactive)
- IC50 [15]: 6.83 µM (active)
- IC50 (Large T antigen): 9.03 µM (active)
- IC50 [13]: 46.5 µM (inactive)
- EC50 [16]: 7.73 µM (active)
- EC50 [17]: 1.65 µM (active)
- IC50 [18]: > 100 µM (inactive)
- EC50 (Mucolipin-3): > 29.9 µM (not active)
- IC50 [19]: 17.8 µM (active)
- IC50 [20]: > 50 µM (inactive)

SMILES: O=c1oc(C2(O)CCCCC2)cc2ccc(-c3ccc4[nH]ccc4c3)cc12
- IC50 (Vero [1]): 1.11 µM (active)

SMILES: c1cncc(-c2ccc3[nH]ccc3c2)c1
- AC50 [21]: 6.97 µM (active)

SMILES: N#C/C(=C\c1cn(-c2ccccc2)nc1-c1cc2ccccc2o1)c1nc2ccccc2[nH]1
- EC50 [22]: > 99 µM (inactive)
- EC50 [23]: 7.03 µM (active)

SMILES: C=CCn1c(SCc2c(C)noc2C)nc2ccccc2c1=O
- AC50 (H4 [24]): 0.574 µM (active)
- IC50 [25]: > 80 µM (inactive)

SMILES: O=C(Nc1nnc(SCc2ccc(Cl)cc2)s1)c1cnccn1
- EC50 [3]: > 160 µM (inactive)
- EC50 [4]: > 180 µM (inactive)
- EC50 [7]: 0.57 µM (active)
- EC50 [11]: 24.4 µM (active)

SMILES: COc1cc(/C=C2/C(=O)N(C)C(=S)N2C)ccc1OCc1cccc(F)c1
- EC50 [26]: > 120 µM (not active)
- EC50 [22]: > 99 µM (inactive)
- EC50 [23]: > 99 µM (inactive)
- EC50 [27]: > 120 µM (not active)
- EC50 (H4 [28]): 4.24 µM (active)

SMILES: c1cncc(-c2csc(-c3cccnc3)n2)c1
- AC50 [21]: 0.676 µM (active)
